Source: ChEMBL document CHEMBL1153355, “Synthesis and cytotoxic activities of novel phenacylimidazolium bromides” (Bioorg Med Chem Lett, 2009)

What was measured:
Assay type in all cases: functional, cell-based
HL-60 = experiment: Cytotoxicity against human HL60 cells by MTT assay
SMMC-7721 = experiment: Cytotoxicity against human SMMC7721 cells by MTT assay
MKN-28 = experiment: Cytotoxicity against human MKN28 cells by MTT assay
K562 = experiment: Cytotoxicity against human K562 cells by MTT assay
A-431 = experiment: Cytotoxicity against human A431 cells by MTT assay
HEp-2 = experiment: Cytotoxicity against human Hep2 cells by MTT assay
SK-OV-3 = experiment: Cytotoxicity against human SKOV3 cells by MTT assay
[1] = Cytotoxicity against human GLC15 cells by MTT assay

Compound | IC50 (HL-60) [µM] | IC50 (SMMC-7721) [µM] | IC50 (MKN-28) [µM] | IC50 (K562) [µM] | IC50 (A-431) [µM] | IC50 (HEp-2) [µM] | IC50 (SK-OV-3) [µM] | IC50 [1] [µM]
CC(=O)Cc1ccc(-n2cc[n+](CC(=O)c3ccccc3)c2)cc1 | 25.8 | 53.4 | > 200 | > 200 | 7 | > 200 | > 200 | 53.5
CC(C)(C)n1cc[n+](CC(=O)c2ccccc2)c1 | > 200 | > 200 | > 200 | > 200 | > 200 | > 200 | > 200 | > 200
COc1ccc(C(=O)C[n+]2ccn(-c3c(C(C)C)cccc3C(C)C)c2)cc1 | 1.1 | 9.9 | 10 | 2.6 | 4.2 | 2.8 | 5 | 5.1
O=C(C[n+]1ccn(C23CC4CC(CC(C4)C2)C3)c1)c1ccc2ccccc2c1 | 4.2 | 7.7 | 12.8 | 3.4 | 6.4 | 0.8 | 4 | 0.8
O=C(C[n+]1ccn(C23CC4CC(CC(C4)C2)C3)c1)c1ccccc1 | 39 | 108 | 198 | > 200 | 13.3 | 93.4 | 59.3 | 108
Cc1cc(C)c(-n2cc[n+](CC(=O)c3ccc4ccccc4c3)c2)c(C)c1 | 2.8 | 6.8 | 8.7 | 2.7 | 4.4 | 0.7 | 2.1 | 0.4
COc1ccc(C(=O)C[n+]2ccn(-c3ccc([N+](=O)[O-])cc3)c2)cc1 | 8.6 | > 200 | 113 | 113 | 75.5 | 41.6 | 26.6 | 97.6
COc1ccc(C(=O)C[n+]2ccn(C34CC5CC(CC(C5)C3)C4)c2)cc1 | 14.7 | 27.9 | 158 | 1.5 | 6.3 | 7.1 | 5.6 | 59.3
COc1ccc(C(=O)C[n+]2ccn(CCc3ccc(OC)c(OC)c3)c2)cc1 | 50.4 | 62.3 | > 200 | > 200 | 188 | 62.3 | 37.4 | 33.4
Cc1cc(C)c(-n2cc[n+](CC(=O)c3ccc(Br)cc3)c2)c(C)c1 | 13.4 | 23.8 | 76.6 | 21.4 | 5.4 | 22.1 | 33.1 | 36.9
COc1ccc(C(=O)C[n+]2ccn(-c3ccc(CC(C)=O)cc3)c2)cc1 | 44.4 | 91.6 | 140 | 16.7 | 14.5 | 84.8 | 61.1 | 26.5
COc1ccc(C(=O)C[n+]2ccn(-c3c(C)cc(C)cc3C)c2)cc1 | 3.1 | 4.7 | 5 | 2.4 | 1.7 | 1.5 | 1.6 | 2.2
CC(C)c1cccc(C(C)C)c1-n1cc[n+](CC(=O)c2ccc3ccccc3c2)c1 | 1.5 | 10.5 | 9.6 | 0.4 | 14.7 | 3.5 | 1.9 | 6.2
Cc1cc(C)c(-n2cc[n+](CC(=O)c3ccc4c(c3)COC4)c2)c(C)c1 | 6.1 | 33.5 | 85.3 | 70.1 | 18.2 | 12.3 | 31.5 | 23.5
COc1ccc(C(=O)C[n+]2ccn(C(C)(C)C)c2)cc1 | > 200 | > 200 | > 200 | > 200 | 66.2 | 117 | > 200 | 179
Cc1cc(C)c(-n2cc[n+](CC(=O)C(C)(C)C)c2)c(C)c1 | 113 | 154 | > 200 | > 200 | > 200 | 132 | 192 | > 200
CC(C)c1cccc(C(C)C)c1-n1cc[n+](CC(=O)c2ccc(Br)cc2)c1 | 3.8 | 10.9 | 35.3 | 2.8 | 4.6 | 9.2 | 11.3 | 18.4
COc1ccc(CCn2cc[n+](CC(=O)c3ccc4ccccc4c3)c2)cc1OC | 54.2 | 34.4 | 85.4 | 169 | 75 | 77.2 | 11 | 50.2
Cc1cc(C)c(-n2c[n+](CC(=O)c3ccc4ccccc4c3)c(C)c2C)c(C)c1 | 4.1 | 9.8 | 1.7 | 0.2 | 3.9 | 1.9 | 3.7 | 4.3
CC(C)c1cccc(C(C)C)c1-n1cc[n+](CC(=O)c2ccc3c(c2)COC3)c1 | 4.5 | 44.3 | 59.6 | 12.1 | 5.1 | 11.6 | 25.5 | 36.9
Cc1cc(C)c(-n2cc[n+](CC(=O)c3ccccc3)c2)c(C)c1 | 31.3 | 16.8 | > 200 | > 200 | 15.6 | 97.6 | 29.9 | > 200
